Experimental data: patent US20190135793A1, “HETEROCYCLIC INHIBITORS OF KDM5 FOR THE TREATMENT OF DISEASE” (Board of Regents, The University of Texas System, priority 2017, published 2019)
Where two headings read alike, the source gives them in different places.

Legend:
KDM4C = target: T1, KDM4C (Homo sapiens, UniProt Q9H3R0); assay: KDM4C AlphaScreen assay; format: biochemical
T1 construct: Full length of KDM5B and KDM4C protein were purchased from Active Motif; purchased Active Motif 31858
T1 sequence (Q9H3R0 1-1056): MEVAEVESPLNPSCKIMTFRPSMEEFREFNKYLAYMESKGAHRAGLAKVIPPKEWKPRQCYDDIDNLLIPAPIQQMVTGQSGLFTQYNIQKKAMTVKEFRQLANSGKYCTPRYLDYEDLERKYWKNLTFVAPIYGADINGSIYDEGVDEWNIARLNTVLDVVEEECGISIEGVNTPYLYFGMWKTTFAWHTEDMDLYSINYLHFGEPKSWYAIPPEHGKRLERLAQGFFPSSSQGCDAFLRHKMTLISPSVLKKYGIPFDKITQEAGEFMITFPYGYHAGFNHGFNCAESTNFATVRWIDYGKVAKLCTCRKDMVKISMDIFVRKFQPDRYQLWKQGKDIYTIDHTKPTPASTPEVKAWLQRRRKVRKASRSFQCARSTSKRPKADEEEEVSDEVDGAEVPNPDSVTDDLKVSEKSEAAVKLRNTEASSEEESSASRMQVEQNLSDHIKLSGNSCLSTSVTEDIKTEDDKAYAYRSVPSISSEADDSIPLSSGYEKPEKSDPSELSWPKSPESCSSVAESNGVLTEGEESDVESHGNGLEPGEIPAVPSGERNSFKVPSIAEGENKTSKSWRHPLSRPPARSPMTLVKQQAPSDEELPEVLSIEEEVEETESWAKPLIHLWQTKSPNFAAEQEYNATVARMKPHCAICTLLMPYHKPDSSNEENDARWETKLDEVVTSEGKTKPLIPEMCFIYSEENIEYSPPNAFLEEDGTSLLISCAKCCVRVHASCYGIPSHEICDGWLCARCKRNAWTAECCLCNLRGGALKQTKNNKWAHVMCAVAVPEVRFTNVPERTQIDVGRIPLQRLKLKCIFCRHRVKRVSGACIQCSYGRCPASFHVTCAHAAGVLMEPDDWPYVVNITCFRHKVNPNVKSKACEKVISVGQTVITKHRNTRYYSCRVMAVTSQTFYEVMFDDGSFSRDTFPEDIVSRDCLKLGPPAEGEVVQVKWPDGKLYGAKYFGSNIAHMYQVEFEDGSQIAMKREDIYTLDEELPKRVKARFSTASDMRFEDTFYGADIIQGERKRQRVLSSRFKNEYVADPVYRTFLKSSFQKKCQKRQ
Experimental: (§1) KDM4C and KDM5B AlphaScreen Assay Material and Method
(§2) Compounds disclosed herein were (and can be) screened using the following assay.
Peptides used in all experiments were purchased from Anaspe. Full length of KDM5B and KDM4C protein were purchased from Active Motif: KDM5B (cat#31832) and KDM4C (Cat #31858). Final concentration of KDM5B and KDM4C used in the assay were 0.5 nM and 0.2 nM. Final concentration of peptides for 5B and 4C used in the assay were 3 nM.
AlphaScreen assays was conducted as following protocol: buffer used to make compound plate or DMSO is composed of 50 mM HEPES pH 7.4, 0.003% Tween-20; buffer used to dilute enzyme is composed of 50 mM HEPES pH 7.4, 0.003% Tween-20, 0.01% BSA, 500 μM TCEP; and buffer used to dilute the substrate is composed of 50 mM HEPES pH 7.4, 0.003% Tween-20, (NH4)2Fe(SO4)2 15 μM, alpha-ketoglutaric acid 4 μM and L-ascorbic acid 100 μM. 4 μL of KDM5B or KDM4C protein were added to 384-well OptiPlate by using multiflow, followed by 4 μl of either buffer or compound. Plates were sealed, spun down and incubated at RT for 15 min. 4 μl of biotinylated peptide was added to the plate, the plate was incubated at room temperature for 25 minutes (KDM5B) and 30 minutes (KDM4C) after sealed and spun down. Streptavidin donor beads and acceptor beads were diluted and mixed in the detection buffer with 7.5 mM EDTA, followed by adding 8 μl of acceptor and donor beads mix to the plate, before the plate was sealed and incubated at room temperature for 3 h or overnight at dark. The plate was read on Envision plate reader (PerkinElmer) using Alphascreen protocol. IC50s were calculated in GraphPad Prism 6.

KDM5B = target: T2, KDM5B (Homo sapiens, UniProt Q9UGL1); assay: biochemical
T2 construct: Full length of KDM5B and KDM4C protein were purchased from Active Motif; purchased Active Motif 31832
T2 sequence (Q9UGL1 whole entry): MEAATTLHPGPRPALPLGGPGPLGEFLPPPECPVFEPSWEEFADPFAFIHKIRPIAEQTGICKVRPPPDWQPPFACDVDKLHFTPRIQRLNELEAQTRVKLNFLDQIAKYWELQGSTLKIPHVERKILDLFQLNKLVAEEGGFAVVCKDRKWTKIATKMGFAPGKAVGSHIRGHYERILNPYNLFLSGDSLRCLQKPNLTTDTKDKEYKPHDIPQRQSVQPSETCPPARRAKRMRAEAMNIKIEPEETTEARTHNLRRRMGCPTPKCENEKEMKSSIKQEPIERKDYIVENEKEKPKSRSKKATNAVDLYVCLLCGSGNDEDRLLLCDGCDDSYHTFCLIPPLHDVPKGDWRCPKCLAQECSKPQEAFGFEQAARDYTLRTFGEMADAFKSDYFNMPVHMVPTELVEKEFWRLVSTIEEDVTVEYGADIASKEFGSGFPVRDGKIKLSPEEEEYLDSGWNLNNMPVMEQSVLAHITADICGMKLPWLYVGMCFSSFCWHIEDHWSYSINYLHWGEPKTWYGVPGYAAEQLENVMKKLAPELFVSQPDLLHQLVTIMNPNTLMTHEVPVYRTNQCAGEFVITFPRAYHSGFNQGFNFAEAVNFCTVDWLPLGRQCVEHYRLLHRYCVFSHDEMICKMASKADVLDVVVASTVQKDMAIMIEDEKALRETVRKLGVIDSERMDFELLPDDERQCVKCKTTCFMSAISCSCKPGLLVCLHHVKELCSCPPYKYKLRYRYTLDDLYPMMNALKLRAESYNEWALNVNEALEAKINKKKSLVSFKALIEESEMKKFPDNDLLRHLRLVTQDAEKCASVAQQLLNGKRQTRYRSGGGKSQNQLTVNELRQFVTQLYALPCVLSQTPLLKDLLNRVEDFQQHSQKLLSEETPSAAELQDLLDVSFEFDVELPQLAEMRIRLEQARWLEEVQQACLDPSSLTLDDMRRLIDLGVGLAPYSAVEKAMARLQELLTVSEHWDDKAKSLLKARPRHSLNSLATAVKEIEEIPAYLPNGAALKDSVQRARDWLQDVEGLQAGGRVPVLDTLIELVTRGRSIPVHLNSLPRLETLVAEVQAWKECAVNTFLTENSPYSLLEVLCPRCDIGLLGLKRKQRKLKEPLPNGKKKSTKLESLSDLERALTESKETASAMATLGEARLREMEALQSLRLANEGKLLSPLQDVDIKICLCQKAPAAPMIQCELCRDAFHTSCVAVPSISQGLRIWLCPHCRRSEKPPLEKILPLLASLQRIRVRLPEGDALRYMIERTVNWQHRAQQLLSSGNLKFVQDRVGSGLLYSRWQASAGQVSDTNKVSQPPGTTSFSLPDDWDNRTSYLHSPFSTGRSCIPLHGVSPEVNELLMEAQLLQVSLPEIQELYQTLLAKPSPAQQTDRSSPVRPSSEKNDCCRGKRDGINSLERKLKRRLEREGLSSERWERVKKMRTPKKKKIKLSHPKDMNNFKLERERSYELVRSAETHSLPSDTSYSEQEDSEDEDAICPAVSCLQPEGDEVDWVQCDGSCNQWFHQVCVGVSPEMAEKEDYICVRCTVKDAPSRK
Experimental: as §1, §2
Peptides used in all experiments were purchased from Anaspe. […] Final concentration of KDM5B and KDM4C used in the assay were 0.5 nM and 0.2 nM. Final concentration of peptides for 5B and 4C used in the assay were 3 nM.
4 μL of KDM5B or KDM4C protein were added to 384-well OptiPlate by using multiflow, followed by 4 μl of either buffer or compound. Plates were sealed, spun down and incubated at RT for 15 min. 4 μl of biotinylated peptide was added to the plate, the plate was incubated at room temperature for 25 minutes (KDM5B) and 30 minutes (KDM4C) after sealed and spun down. Streptavidin donor beads and acceptor beads were diluted and mixed in the detection buffer with 7.5 mM EDTA, followed by adding 8 μl of acceptor and donor beads mix to the plate, before the plate was sealed and incubated at room temperature for 3 h or overnight at dark. The plate was read on Envision plate reader (PerkinElmer) using Alphascreen protocol. IC50s were calculated in GraphPad Prism 6.

[1] = AlphaScreen, full length KDM4C 0.2 nM, biotinylated H3K9Me3 peptide 3 nM, 30 minutes at room temperature
[2] = AlphaScreen, full length KDM5B 0.5 nM, biotinylated H3K4Me3 peptide 3 nM, 25 minutes at room temperature, read-out: KDM5B (IC50)

Row | IC50 (KDM4C; [1]) | IC50 (KDM5B) | IC50 (KDM5B; [2]) | SMILES | IC50 (KDM4C)
1 | 10300 nM | 651 nM |  | CC(C)c1c(O)nc(-n2ccnc2)nc1OCC(=O)O [Example 15, 2-{[6-hydroxy-2-(1H-imidazol-1-yl)-5-(propan-2-yl)pyrimidin-4-yl]oxy}acetic acid] | 
2 | 9570 nM | 148 nM |  | CC(C)c1c(O)nc(-n2ccnc2)nc1OCC(=O)NS(C)(=O)=O [Example 17, 2-{[6-hydroxy-2-(1H-imidazol-1-yl)-5-(propan-2-yl)pyrimidin-4-yl]oxy}-N-methanesulfonylacetamide] | 
3 | 2970 nM | 27 nM |  | CC(C)c1c(O)nc(-n2ccnc2)nc1NCc1cccnc1 [Example 18, 2-(1H-Imidazol-1-yl)-5-isopropyl-6-((pyridin-3-ylmethyl)amino)pyrimidin-4-ol] | 
4 | 1790 nM | 91 nM |  | CC(C)c1c(O)nc(-c2cncs2)nc1OCc1cccnc1 [Example 19, 5-(propan-2-yl)-6-(pyridin-3-ylmethoxy)-2-(1,3-thiazol-5-yl)pyrimidin-4-ol] | 
5 | 11200 nM | 100 nM |  | CC(C)c1c(O)nc(-c2cncs2)nc1-c1cnn(Cc2ccccc2)c1 [Example 20, 6-(1-Benzyl-1H-pyrazol-4-yl)-5-(propan-2-yl)-2-(1,3-thiazol-5-yl)pyrimidin-4-ol] | 
6 | 21100 nM | 1930 nM |  | Cc1nc(-c2c[nH]cn2)nc(O)c1C(C)C [Example 21, 2-(1H-imidazol-4-yl)-5-isopropyl-6-methylpyrimidin-4-ol] | 
7 | 470 nM | 16 nM |  | Cc1nc(-n2ccnc2)nc(O)c1C(C)C [Example 22, 2-(1H-imidazol-1-yl)-5-isopropyl-6-methylpyrimidin-4-ol] | 
8 | 775 nM | 24 nM |  | Cc1nc(-n2ccnc2N)nc(O)c1C(C)C [Example 23, 2-(2-aminoimidazol-1-yl)-5-isopropyl-6-methyl-pyrimidin-4-ol] | 
9 | 499 nM | 45 nM |  | Cc1nc(-n2cncc2CO)nc(O)c1C(C)C [Example 24a, 2-[5-(hydroxymethyl)imidazol-1-yl]-5-isopropyl-6-methyl-pyrimidin-4-ol] | 
10 | 16800 nM | 1260 nM |  | Cc1nc(-n2cnc(CO)c2)nc(O)c1C(C)C [Example 24b, 2-[4-(hydroxymethyl)imidazol-1-yl]-5-isopropyl-6-methyl-pyrimidin-4-ol] | 
11 | 613 nM | 48 nM |  | Cc1nc(-n2ccnc2CO)nc(O)c1C(C)C [Example 25, 2-[2-(hydroxymethyl)imidazol-1-yl]-5-isopropyl-6-methyl-pyrimidin-4-ol] | 
12 | 15800 nM | 1070 nM |  | Cc1nc(-c2cn[nH]c2)nc(O)c1C(C)C [Example 26, 5-Isopropyl-6-methyl-2-(1H-pyrazol-4-yl)pyrimidin-4-ol] | 
13 | 1750 nM | 32 nM |  | CC(C)c1c(O)nc(-n2ccnc2)nc1Oc1cccnc1 [Example 28a, 2-(1H-Imidazol-1-yl)-5-isopropyl-6-(pyridin-3-yloxy)pyrimidin-4-ol] | 
14 | 1650 nM | 19 nM |  | CC(C)c1c(O)nc(-n2ccnc2)nc1-n1ccnc1 [Example 28b, 2,6-di(1H-imidazol-1-yl)-5-isopropylpyrimidin-4-ol] | 
15 | 502 nM | 9 nM |  | CC(C)c1c(O)nc(-n2ccnc2)nc1OCc1cccnc1 [Example 29, 2-(1H-Imidazol-1-yl)-5-isopropyl-6-(pyridin-3-ylmethoxy)pyrimidin-4-ol] | 
16 | 15300 nM | 345 nM |  | CC(C)c1c(O)nc(-c2cncs2)nc1-c1cnn(C)c1 [Example 30, 5-isopropyl-6-(1-methyl-1H-pyrazol-4-yl)-2-(thiazol-5-yl)pyrimidin-4-ol] | 
17 | 5680 nM | 74 nM |  | Cc1nc(-c2cncn2C)nc(O)c1C(C)C [Example 31, 6-methyl-2-(1-methyl-1H-imidazol-5-yl)-5-(propan-2-yl)pyrimidin-4-ol] | 
18 | 14100 nM | 4420 nM |  | Oc1nc(-c2cncs2)ncc1C1CC1 [Example 32, 5-cyclopropyl-2-(thiazol-5-yl)pyrimidin-4-ol] | 
19 | 3640 nM | 2530 nM |  | Oc1nc(-c2cncs2)ncc1C(F)(F)F [Example 33, 2-(1,3-Thiazol-5-yl)-5-(trifluoromethyl)pyrimidin-4-ol] | 
20 | 281 nM |  | 3 nM | CC(C)c1c(O)nc(-n2ccnc2)nc1-c1cccc(CN)c1 [Example 41, 6-[3-(Aminomethyl)phenyl]-2-(1H-imidazol-1-yl)-5-(propan-2-yl)pyrimidin-4-ol] | 
21 | 554 nM | 4 nM |  | CC(C)c1c(O)nc(-n2ccnc2)nc1-c1ccc(CN)cc1 [Example 42, 6-[4-(Aminomethyl)phenyl]-2-(1H-imidazol-1-yl)-5-(propan-2-yl)pyrimidin-4-ol] | 
22 | 1110 nM |  | 9 nM | CC(=O)NCc1ccc(-c2nc(-n3ccnc3)nc(O)c2C(C)C)cc1 [Example 43, N-({4-[6-Hydroxy-2-(1H-imidazol-1-yl)-5-(propan-2-yl)pyrimidin-4-yl]phenyl}-methyl)acetamide] | 
23 | 815 nM | 10 nM |  | CC(C)c1c(O)nc(-n2ccnc2)nc1-c1cnn(CCC#N)c1 [Example 44, 3-{4-[6-Hydroxy-2-(1H-imidazol-1-yl)-5-(propan-2-yl)pyrimidin-4-yl]-1H-pyrazol-1-yl}propanenitrile] | 
24 | 1140 nM |  | 10 nM | CC(C)c1c(O)nc(-n2ccnc2)nc1-c1cnn(Cc2cccnc2)c1 [Example 45, 2-(1H-Imidazol-1-yl)-5-(propan-2-yl)-6-[1-(pyridin-3-ylmethyl)-1H-pyrazol-4-yl]-pyrimidin-4-ol] | 
25 | 1130 nM |  | 10 nM | CC(C)c1c(O)nc(-n2ccnc2)nc1-c1cn[nH]c1 [Example 46, 2-(1H-Imidazol-1-yl)-5-(propan-2-yl)-6-(1H-pyrazol-4-yl)pyrimidin-4-ol] | 
26 | 771 nM | 11 nM |  | CC(C)c1c(O)nc(-n2ccnc2)nc1-c1cnn(C2CC2)c1 [Example 47, 6-(1-Cyclopropyl-1H-pyrazol-4-yl)-2-(1H-imidazol-1-yl)-5-(propan-2-yl)pyrimidin-4-ol] | 

Row | SMILES | IC50 (KDM4C; [1]) | IC50 (KDM5B) | IC50 (KDM5B; [2]) | IC50 (KDM4C)
27 | CC(C)c1c(O)nc(-n2ccnc2)nc1OCC(=O)N1CCN(C)CC1 [Example 16, 2-{[6-hydroxy-2-(1H-imidazol-1-yl)-5-(propan-2-yl)pyrimidin-4-yl]oxy}-1-(4-methylpiperazin-1-yl)ethan-1-one] |  | 26 nM |  | 5730 nM
